Laboratory results: US20060002881A1, “Perfluorocarbon-soluble compounds” (priority 2004, published 2006)

How the values were obtained:
Format in all cases: physicochemical
[1] = Solubility of C7F15-MPEG in PFC; details: decreases with increment of MW of MPEG
[2] = Solvent solubility of perfluoroalkanamides; set-up: key: S: complete dissolve in the solvent at room temperature; P: precipitation in the solvent; details: 3% w/w; for Solubility in Acetone: room temperature
Description: It is clear from the observation that perfluoroalkanamides of the present invention can easily form micelles in acetone at room temperature. With shorter perfluoroalkyl group (i.e., C6F13—), perfluoroalkanamide can dissolve into all tested hydrocarbon solvents at room temperature, but precipitate in fluorocarbon (i.e., CF-76).

[3] = Ternary phase diagram / phase behavior of PFC/water/fluorosurfactant (PFC microemulsion formation)
Description: The formation of PFC-in-water emulsion requires high energy to disperse PFC as surfactant-stabilized microdroplets in aqueous phase; while, for thermodynamic stable PFC microemulsion, two immiscible liquid phases with the aid of a pertinent fluorosurfactant can turn into an optically isotropic solution simply by gentle mixing. Given in FIG. 2, different phase behaviors were created by titering various concentrations of C7F15CONH-MPEG350 surfactant dissolved in water solution with different amounts of PFOB liquid. Since the specific density of PFOB is 1.94 which is larger than the water density, the milky PFOB-in-water emulsion settled down on the bottom of the vial (FIG. 2A). […]
Aqueous solutions containing given quantities of fluorosurfactant were progressively added with PFC and placed in a thermostat water bath set at 25° C. After each addition, the aspect of the solution was recorded, along with number, nature, and approximate volumes of phases. […] Ternary phase diagrams were then plotted to distinguish the boundaries between different phases and used to quantitate the proportion of three components (water, fluorosurfactant, and PFC) forming PFC microemulsion.
The ternary phase diagram given in FIG. 3 was determined by the weight fraction of water, PFOB, and RF-MPEG350. The PFOB microemulsion domain was determined to be the area under the test points symbolized as ▪. […]

| Compound | Solubility in CF-76 (3 M) ([2]; @ RT) | Solubility in Ethanol ([2]; @ RT) | Solubility in Hexane ([2]; @ RT) | Solubility in Acetone [2] | Solubility in CF-76 (3 M) ([2]; > 40° C.) | Solubility in Hexane ([2]; > 30° C.) | Solubility in Ethanol ([2]; > 40° C.) | Size of PFC microemulsion domain in ternary phase diagram ([3]; PFOB and ZT85, 25° C.) | Formation of transparent PFC microemulsion ([3]; PFOB or ZT85 / water / fluorosurfactant, 25° C., no co-surfactant) | Solubility in PFOB or ZT85 (rank order) [1] |
| --- | --- | --- | --- | --- | --- | --- | --- | --- | --- | --- |
| C7F15CONH-PEG550-OCH3 | – | – | – | – | – | – | – | – | – | C7F15-MPEG350>C7F15-MPEG550>C7F15-MPEG750 |
| C7F15CONH-PEG750-OCH3 | – | – | – | – | – | – | – | – | – | C7F15-MPEG350>C7F15-MPEG550>C7F15-MPEG750 |
| CCCCCCCCNC(=O)C(F)(F)C(F)(F)C(F)(F)C(F)(F)C(F)(F)C(F)(F)C(F)(F)C(F)(F)F [C8F17CONHC8H17] | S | S | S | S | – | – | – | – | – | – |
| CCCCCCCCCCCCNC(=O)C(F)(F)C(F)(F)C(F)(F)C(F)(F)C(F)(F)C(F)(F)C(F)(F)F [C7F15CONHC12H25] | @ RT → P > | @ RT → P > | @ RT → P > | S | 40 °C → S | 30 °C → S | 40 °C → S | – | – | – |
| CCCCCCCCCCCCNC(=O)C(F)(F)C(F)(F)C(F)(F)C(F)(F)C(F)(F)C(F)(F)C(F)(F)C(F)(F)F [C8F17CONHC12H25] | @ RT → P > | @ RT → P > | @ RT → P > | S | 40 °C → S | 30 °C → S | 40 °C → S | – | – | – |

Further lines, with some results ahead:

| Solubility in CF-76 (3 M) ([2]; @ RT) | Solubility in Ethanol ([2]; @ RT) | Solubility in Hexane ([2]; @ RT) | Solubility in Acetone [2] | Solubility in CF-76 (3 M) ([2]; > 40° C.) | Solubility in Hexane ([2]; > 30° C.) | Solubility in Ethanol ([2]; > 40° C.) | Size of PFC microemulsion domain in ternary phase diagram ([3]; PFOB and ZT85, 25° C.) | Formation of transparent PFC microemulsion ([3]; PFOB or ZT85 / water / fluorosurfactant, 25° C., no co-surfactant) | Compound | Solubility in PFOB or ZT85 (rank order) [1] |
| --- | --- | --- | --- | --- | --- | --- | --- | --- | --- | --- |
| @ RT → P > | S | S | S | 40 °C → S | – | – | – | – | CCCCCCCCCCCCNC(=O)C(F)(F)C(F)(F)C(F)(F)C(F)(F)C(F)(F)C(F)(F)F [C6F13CONHC12H25] | – |
| – | – | – | – | – | – | – | largest PFC microemulsion region | PFC-in-water microemulsion | C7F15CONH-PEG350-OCH3 | C7F15-MPEG350>C7F15-MPEG550>C7F15-MPEG750 |
